Experimental data reported in paper PMC11513923, “Discovery of ZLC491 as a Potent, Selective, and Orally Bioavailable CDK12/13 PROTAC Degrader” (Journal of Medicinal Chemistry, 2024).

What was measured:
Type in all cases: cell-based, human
[1] = test system: DDR genes; experiment: RT-qPCR of DDR genes in MDA-MB-231 cells; conditions: MDA-MB-231, different doses, 12 h
Experimental: We next evaluated the effect of ZLC491 on the expression of DDR genes regulated by CDK12/13.
(A) Transcription level of DDR genes in MDA-MB-231 cells determined by RT-qPCR upon the treatment with vehicle or ZLC491 at different doses for 12 h, ROR1 was used as a negative control; (B) immunoblotting of DDR proteins in MDA-MB-231 cells after the treatment of ZLC491 at different doses for 48 h; (C) cell antiproliferative activity of ZLC491 in multiple TNBC cells as well as several noncancerous cells. Cells were treated with the compound for 5 days; (D,E) antiproliferative potency of cisplatin or olaparib alone or combined with ZLC491 at different doses in MDA-MB-231 cells for 5 days. Data are plotted using the percentage of absorbance relative to DMSO controls. (F) IC50 values and combination index (CI) in drug combination assay. In this model, CI scores estimate the interaction between the two drugs. If CI < 1, the drugs have a synergistic effect and if CI > 1, the drugs have an antagonistic effect. […]
RNA utilized for RT-qPCR was extracted as outlined below. […] Expression was normalized to GAPDH, and fold change in expression was calculated relative to the indicated conditions using ΔΔCt method.

[2] = test system: CDK12/13; experiment: Immunoblotting of CDK12/13 in MDA-MB-231 cells (time course, negative control, series comparison); conditions: 1 μM
Experimental: (§1) To further characterize the compound, we determined the half-degradation concentration (DC50) values of ZLC491 in MDA-MB-231 cells. […] We also treated MDA-MB-231 cells with 1 μM ZLC491 at various time points.
(§2) (A) Immunoblotting of CDK12 and CDK13 in MDA-MB-231 cells treated with increasing concentrations of ZLC491 for 15 h (left). Percent remaining CDK12 and CDK13 proteins were plotted for DC50 determination (right). Protein levels were quantified using ImageJ and normalized to corresponding α-tubulin, then plotted using Graphpad Prism 8.0. The data were representative of three independent experiments; (B) immunoblotting of CDK12 and CDK13 proteins in MDA-MB-231 cells treated with ZLC491 for various time points; immunoblotting of CDK12 and CDK13 in HCC38 (C) and MDA-MB-436 (D) cells treated with increasing concentrations of ZLC491 for 15 h. α-Tubulin was used as a loading control. TEXT PRINTED IN THE PICTURE: (A) ZLC491: MDA-MB-231: CDK12 DC50 = 0.032μM; MDA-MB-231: CDK13 DC50 = 0.028μM DOUBTS OF THE COPYIST ABOUT THIS PICTURE: ZLC491, CDK12 DC50: 0.032 read from small print, the digits 3 and 2 are uncertain / ZLC491, CDK13 DC50: 0.028 read from small print, the last digit may be 8, 6 or 3
Figure 4 ZLC491 induced CDK12/13 degradation in a CRBN- and proteasome-dependent fashion. […]

[3] = test system: CDK12/13; experiment: Immunoblotting of CDK12 and CDK13 in MDA-MB-436 cells; conditions: increasing concentrations, 15 h
Experimental: as §1
as §2, with “or 3 […]” for “or 3”

## N#Cc1ccc(N[C@H]2CC[C@H](N(C(=O)NCc3ccccc3)c3ccc(N4CCN(C5CCN(c6cc7c(cc6F)C(=O)N(C6CCC(=O)NC6=O)C7=O)CC5)CC4)cc3)CC2)nc1 (stereo partly drawn) [ZLC491, 3-Benzyl-1-((1r,4r)-4-((5-cyanopyridin-2-yl)amino)cyclohexyl)-1-(4-(4-(1-(2-(2,6-dioxopiperidin-3-yl)-6-fluoro-1,3-dioxoisoindolin-5-yl)piperidin-4-yl)piperazin-1-yl)phenyl)urea]
[1]
  transcription of DDR genes (ATM, ATR, BRCA1, BRCA2, FANCD2, SMARCC): concentration-dependently suppressed
[2]
  time at which significant reduction of CDK12/13 is observed: ≤ 4 h
[3]
  depletion of CDK12/13: concentration-dependent manner
